From PubChem BioAssay AID1963970 (Molecular Pharmacology Branch, DTP, NCI, 2024)
Several values for one entry are separate records, joined by “and”; a condition that tells them apart may be missing. Equal values may be shown once.

System: 931267-113-T-J1-PDC multicell spheroid viability
Assay: Anticancer human tumor 931267-113-T-J1-PDC patient-derived colon adenocarcinoma cell line growth inhibition [PI3K]
Details: for viability, T/C: stronger effect = lower value
How it was run: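 Multi-cell spheroids combine tumor cells with HUVEC and human MSCs, treated with targeted agents alone or with inavolisib, alpelisib, duvelisib or copanlisib. Concentrations fall in half-log steps from at or near clinical Cmax, or from 10 microM where Cmax is unknown; viability read-out.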

[1] = curve of first compound, second compound 0.00316 µM
[2] = curve of first compound, second compound 0.01 µM
[3] = curve of first compound, second compound 0.0316 µM
[4] = curve of first compound, second compound 0.1 µM
[5] = curve of first compound, second compound 0.316 µM
[6] = curve of first compound, second compound 1 µM
[7] = second compound 0.00316 µM, first compound 0.0316 µM
[8] = second compound 0.00316 µM, first compound 0.1 µM
[9] = second compound 0.00316 µM, first compound 0.316 µM
[10] = second compound 0.00316 µM, first compound 1 µM
[11] = second compound 0.00316 µM, first compound 3.16 µM
[12] = second compound 0.00316 µM, first compound 10 µM
[13] = second compound 0.01 µM, first compound 0.0316 µM
[14] = second compound 0.01 µM, first compound 0.1 µM
[15] = second compound 0.01 µM, first compound 0.316 µM
[16] = second compound 0.01 µM, first compound 1 µM
[17] = second compound 0.01 µM, first compound 3.16 µM
[18] = second compound 0.01 µM, first compound 10 µM
[19] = second compound 0.0316 µM, first compound 0.0316 µM
[20] = second compound 0.0316 µM, first compound 0.1 µM
[21] = second compound 0.0316 µM, first compound 0.316 µM
[22] = second compound 0.0316 µM, first compound 1 µM
[23] = second compound 0.0316 µM, first compound 3.16 µM
[24] = second compound 0.0316 µM, first compound 10 µM
[25] = second compound 0.1 µM, first compound 0.0316 µM
[26] = second compound 0.1 µM, first compound 0.1 µM
[27] = second compound 0.1 µM, first compound 0.316 µM
[28] = second compound 0.1 µM, first compound 1 µM
[29] = second compound 0.1 µM, first compound 3.16 µM
[30] = second compound 0.1 µM, first compound 10 µM
[31] = second compound 0.316 µM, first compound 0.0316 µM
[32] = second compound 0.316 µM, first compound 0.1 µM
[33] = second compound 0.316 µM, first compound 0.316 µM
[34] = second compound 0.316 µM, first compound 1 µM
[35] = second compound 0.316 µM, first compound 3.16 µM
[36] = second compound 0.316 µM, first compound 10 µM
[37] = second compound 1 µM, first compound 0.0316 µM
[38] = second compound 1 µM, first compound 0.1 µM
[39] = second compound 1 µM, first compound 0.316 µM
[40] = second compound 1 µM, first compound 1 µM
[41] = second compound 1 µM, first compound 3.16 µM
[42] = second compound 1 µM, first compound 10 µM
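Note: viability read 7 days after compound addition.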

`CCCS(=O)(=O)Nc1ccc(F)c(C(=O)c2c[nH]c3ncc(-c4ccc(Cl)cc4)cc23)c1F` + CC(Nc1ccc2c(c1)OCCn1cc(N3C(=O)OCC3C(F)F)nc1-2)C(N)=O gave an IC50 [1] of 6.11 µM, an IC50 [2] of 6.34 µM and an IC50 [3] of 6.06 µM. The IC50 [4] was 5.73 µM, the IC50 [5] was 4.89 µM and the IC50 [6] was 4.58 µM. The viability, T/C [7] was 95.6%, the viability, T/C [8] was 105% and the viability, T/C [9] was 125%. The viability, T/C [10] was 117%, the viability, T/C [11] was 120% and the viability, T/C [12] was 2.95%. The viability, T/C [13] was 113%, the viability, T/C [14] was 118% and the viability, T/C [15] was 121%. It also gave a viability, T/C [16] of 125%, a viability, T/C [17] of 132% and a viability, T/C [18] of 3.03%. The viability, T/C [19] was 105%, the viability, T/C [20] was 103% and the viability, T/C [21] was 110%. It also gave a viability, T/C [22] of 119%, a viability, T/C [23] of 114% and a viability, T/C [24] of 3.59%. It also gave a viability, T/C [25] of 91.9%, a viability, T/C [26] of 81.2% and a viability, T/C [27] of 102%. It also gave a viability, T/C [28] of 107%, a viability, T/C [29] of 111% and a viability, T/C [30] of 4.35%. It also gave a viability, T/C [31] of 82.3%, a viability, T/C [32] of 86.5% and a viability, T/C [33] of 87.9%. The viability, T/C [34] was 99.2%, the viability, T/C [35] was 78.9% and the viability, T/C [36] was 2.7%. It also gave a viability, T/C [37] of 75.5%, a viability, T/C [38] of 75.4% and a viability, T/C [39] of 76.3%. For the same compound, the viability, T/C [40] was 61.3%, the viability, T/C [41] was 74.7% and the viability, T/C [42] was 2.07%.

Compound `C=CC(=O)N1CCN(c2nc(=O)n(-c3c(C)ccnc3C(C)C)c3nc(-c4c(O)cccc4F)c(F)cc23)C(C)C1` (stereo not given) + COc1c(OCCCN2CCOCC2)ccc2c3n(c(=NC(=O)c4cnc(N)nc4)nc12)CCN3 has an IC50 [1] greater than 10 µM, an IC50 [2] greater than 10 µM and an IC50 [3] greater than 10 µM. The IC50 [4] was greater than 10 µM, the IC50 [5] was less than 0.0316 µM and the IC50 [6] was less than 0.0316 µM. The viability, T/C [7] was 107%, the viability, T/C [8] was 107% and the viability, T/C [9] was 101%. It also gave a viability, T/C [10] of 95.3%, a viability, T/C [11] of 103% and a viability, T/C [12] of 101%. For the same compound, the viability, T/C [13] was 102%, the viability, T/C [14] was 106% and the viability, T/C [15] was 91.4%. The viability, T/C [16] was 99.4%, the viability, T/C [17] was 103% and the viability, T/C [18] was 81.1%. For the same compound, the viability, T/C [19] was 95.5%, the viability, T/C [20] was 98.3% and the viability, T/C [21] was 90.4%. The viability, T/C [22] was 85.1%, the viability, T/C [23] was 86.5% and the viability, T/C [24] was 79.1%. The viability, T/C [25] was 71.2%, the viability, T/C [26] was 68.6% and the viability, T/C [27] was 70.5%. For the same compound, the viability, T/C [28] was 73.7%, the viability, T/C [29] was 71.4% and the viability, T/C [30] was 62.5%. It also gave a viability, T/C [31] of 49.5%, a viability, T/C [32] of 44.1% and a viability, T/C [33] of 47.6%. For the same compound, the viability, T/C [34] was 51.5%, the viability, T/C [35] was 52.3% and the viability, T/C [36] was 46.6%. The viability, T/C [37] was 35.1%, the viability, T/C [38] was 29.1% and the viability, T/C [39] was 35.1%. It also gave a viability, T/C [40] of 35.3%, a viability, T/C [41] of 36.5% and a viability, T/C [42] of 32.5%.

For `CNC(=O)c1ccc(N2C(=S)N(c3ccc(C#N)c(C(F)(F)F)c3)C(=O)C2(C)C)cc1F`, the viability, T/C (compound 0.0316 µM) was 104% [middle of 4 runs], the viability, T/C (compound 0.1 µM) was 103% [middle of 4 runs] and the viability, T/C (compound 0.316 µM) was 98.2% [middle of 4 runs]. The viability, T/C (compound 1 µM) was 101% [middle of 4 runs], the viability, T/C (compound 3.16 µM) was 102% and 108% (2×) and 105% and the viability, T/C (compound 10 µM) was 108% and 105% (2×) and 93.6%. It also gave an IC50 (curve of compound) greater than 10 µM.

`CCCS(=O)(=O)Nc1ccc(F)c(C(=O)c2c[nH]c3ncc(-c4ccc(Cl)cc4)cc23)c1F` + Cc1nc(NC(=O)N2CCCC2C(N)=O)sc1-c1ccnc(C(C)(C)C(F)(F)F)c1 gave an IC50 [3] of 6.23 µM, an IC50 [4] of 6.09 µM and an IC50 [5] of 5.47 µM. The IC50 [6] was 5.38 µM, the IC50 (curve of first compound, second compound 3.16 µM) was 4.53 µM and the IC50 (curve of first compound, second compound 10 µM) was 2.39 µM. For the same compound, the viability, T/C [19] was 104%, the viability, T/C [20] was 98% and the viability, T/C [21] was 121%. The viability, T/C [22] was 131%, the viability, T/C [23] was 113% and the viability, T/C [24] was 6.2%. The viability, T/C [25] was 99.5%, the viability, T/C [26] was 105% and the viability, T/C [27] was 105%. The viability, T/C [28] was 118%, the viability, T/C [29] was 120% and the viability, T/C [30] was 5.03%. For the same compound, the viability, T/C [31] was 100%, the viability, T/C [32] was 91% and the viability, T/C [33] was 95.7%. It also gave a viability, T/C [34] of 108%, a viability, T/C [35] of 91.2% and a viability, T/C [36] of 4.47%. It also gave a viability, T/C [37] of 87.8%, a viability, T/C [38] of 80.5% and a viability, T/C [39] of 91.5%. It also gave a viability, T/C [40] of 96.6%, a viability, T/C [41] of 89.6% and a viability, T/C [42] of 4.19%. It also gave a viability, T/C (second compound 3.16 µM, first compound 0.0316 µM) of 69%, a viability, T/C (second compound 3.16 µM, first compound 0.1 µM) of 82.1% and a viability, T/C (second compound 3.16 µM, first compound 0.316 µM) of 77.7%. The viability, T/C (second compound 3.16 µM, first compound 1 µM) was 72.5%, the viability, T/C (second compound 3.16 µM, first compound 3.16 µM) was 70.7% and the viability, T/C (second compound 3.16 µM, first compound 10 µM) was 4.52%. For the same compound, the viability, T/C (second compound 10 µM, first compound 0.0316 µM) was 61.2%, the viability, T/C (second compound 10 µM, first compound 0.1 µM) was 60.9% and the viability, T/C (second compound 10 µM, first compound 0.316 µM) was 65.3%. It also gave a viability, T/C (second compound 10 µM, first compound 1 µM) of 63.7%, a viability, T/C (second compound 10 µM, first compound 3.16 µM) of 46% and a viability, T/C (second compound 10 µM, first compound 10 µM) of 3.36%.

Compound `CCN1CCN(Cc2ccc(Nc3ncc(F)c(-c4cc(F)c5nc(C)n(C(C)C)c5c4)n3)nc2)CC1` + CC(Nc1ccc2c(c1)OCCn1cc(N3C(=O)OCC3C(F)F)nc1-2)C(N)=O has an IC50 [1] greater than 1 µM, an IC50 [2] greater than 1 µM and an IC50 [3] greater than 1 µM. It also gave an IC50 [4] greater than 1 µM, an IC50 [5] greater than 1 µM and an IC50 [6] of 0.452 µM. The viability, T/C (second compound 0.00316 µM, first compound 0.00316 µM) was 95.5%, the viability, T/C (second compound 0.00316 µM, first compound 0.01 µM) was 99.3% and the viability, T/C [7] was 102%. For the same compound, the viability, T/C [8] was 108%, the viability, T/C [9] was 99.3% and the viability, T/C [10] was 80.8%. The viability, T/C (second compound 0.01 µM, first compound 0.00316 µM) was 108%, the viability, T/C (second compound 0.01 µM, first compound 0.01 µM) was 96.7% and the viability, T/C [13] was 99.2%. For the same compound, the viability, T/C [14] was 91.5%, the viability, T/C [15] was 93.4% and the viability, T/C [16] was 80.7%. It also gave a viability, T/C (second compound 0.0316 µM, first compound 0.00316 µM) of 105%, a viability, T/C (second compound 0.0316 µM, first compound 0.01 µM) of 101% and a viability, T/C [19] of 95.2%. For the same compound, the viability, T/C [20] was 85.2%, the viability, T/C [21] was 86% and the viability, T/C [22] was 70.2%. It also gave a viability, T/C (second compound 0.1 µM, first compound 0.00316 µM) of 92.8%, a viability, T/C (second compound 0.1 µM, first compound 0.01 µM) of 97.8% and a viability, T/C [25] of 94.1%. For the same compound, the viability, T/C [26] was 79.7%, the viability, T/C [27] was 69.7% and the viability, T/C [28] was 60.9%. The viability, T/C (second compound 0.316 µM, first compound 0.00316 µM) was 80.4%, the viability, T/C (second compound 0.316 µM, first compound 0.01 µM) was 84.5% and the viability, T/C [31] was 79%. For the same compound, the viability, T/C [32] was 70.4%, the viability, T/C [33] was 62.5% and the viability, T/C [34] was 51.6%. The viability, T/C (second compound 1 µM, first compound 0.00316 µM) was 86.7%, the viability, T/C (second compound 1 µM, first compound 0.01 µM) was 79.4% and the viability, T/C [37] was 65.7%. The viability, T/C [38] was 59.2%, the viability, T/C [39] was 52% and the viability, T/C [40] was 46.3%.
